From the supplement of paper PMC8671470

What was measured:
Settings in all cases: 72 h
BV-173 = system: BV-173
Procedure, shortened: (§1)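 Dose–response data were fitted with a four-parameter log-logistic model. They came from fifteen myeloid leukaemia lines treated in duplicate with five tenfold doses from 1 to 10,000 nM for 72 h at 37 °C with 5% CO2, with ATP viability normalised to vehicle and to a positive control at 10 µM. The IC50 was derived from these fits.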

HEL = system: HEL
Procedure, shortened: as §1

HL-60 = system: HL-60
Procedure, shortened: as §1

K-562 = system: K-562
Procedure, shortened: as §1

KCL-22 = system: KCL-22
Procedure, shortened: as §1

KG-1 = system: KG-1
Procedure, shortened: as §1

KU-812 = system: KU-812
Procedure, shortened: as §1

LAMA-84 = system: LAMA-84
Procedure, shortened: as §1

ML-2 = system: ML-2
Procedure, shortened: as §1

MOLM-13 = system: MOLM-13
Procedure, shortened: as §1

MV4-11 = system: MV4-11
Procedure, shortened: as §1

Mono-Mac-6 = system: Mono-Mac-6
Procedure, shortened: as §1

NOMO-1 = system: NOMO-1
Procedure, shortened: as §1

SHI-1 = system: SHI-1
Procedure, shortened: as §1

THP-1 = system: THP-1
Procedure, shortened: as §1

SMILES	IC50 (cell viability) (BV-173)	IC50 (cell viability) (HEL)	IC50 (cell viability) (HL-60)	IC50 (cell viability) (K-562)	IC50 (cell viability) (KCL-22)	IC50 (cell viability) (KG-1)	IC50 (cell viability) (KU-812)	IC50 (cell viability) (LAMA-84)	IC50 (cell viability) (ML-2)	IC50 (cell viability) (MOLM-13)	IC50 (cell viability) (MV4-11)	IC50 (cell viability) (Mono-Mac-6)	IC50 (cell viability) (NOMO-1)	IC50 (cell viability) (SHI-1)	IC50 (cell viability) (THP-1)
C1CCc2nnc(C34CC5CC(CC(C5)C3)C4)n2CC1 [MERCK-544]	> 10 µM	> 10 µM	> 10 µM	> 10 µM	> 10 µM	> 10 µM	> 10 µM	> 10 µM	> 10 µM	> 10 µM	> 10 µM	> 10 µM	> 10 µM	> 10 µM	> 10 µM
CC(Cc1ccc(O)c(O)c1)C(C)Cc1ccc(O)c(O)c1 (stereo not given) [Masoprocol]	3.66 µM	> 10 µM	3.15 µM	> 10 µM	> 10 µM	6.63 µM	> 10 µM	> 10 µM	3.42 µM	> 10 µM	3.8 µM	2.08 µM	> 10 µM	> 10 µM	> 10 µM
CC(C(=O)O)C(=O)O [Methylmalonate]	> 10 µM	> 10 µM	> 10 µM	> 10 µM	> 10 µM	> 10 µM	> 10 µM	> 10 µM	> 10 µM	> 10 µM	> 10 µM	> 10 µM	> 10 µM	> 10 µM	> 10 µM
COc1c(C)c2c(c(O)c1C/C=C(\C)CCC(=O)O)C(=O)OC2 [Mycophenolic acid]	0.679 µM	1.01 µM	0.652 µM	0.561 µM	0.289 µM	2.34 µM	0.954 µM	0.771 µM	0.333 µM	0.183 µM	0.507 µM	1.83 µM	2.55 µM	2.52 µM	> 10 µM
C1CCC(C(CC2CCCCN2)C2CCCCC2)CC1.O=C(O)/C=C\C(=O)O (stereo not given) [Perhexiline]	3.34 µM	3.23 µM	2.85 µM	3.35 µM	3.63 µM	3.23 µM	3.99 µM	4.23 µM	3.43 µM	2.66 µM	2.73 µM	3.55 µM	6.5 µM	3.28 µM	2.55 µM
OCCN1CCN(CCCN2c3ccccc3Sc3ccc(Cl)cc32)CC1 [Perphenazine]	5.91 µM	> 10 µM	5.06 µM	2.87 µM	8.23 µM	8.85 µM	6.71 µM	9.39 µM	7.38 µM	5.77 µM	3.54 µM	> 10 µM	> 10 µM	> 10 µM	> 10 µM
C=CCc1ccc2c(c1O)C(=O)c1ccccc1C2=O [R162]	> 10 µM	> 10 µM	> 10 µM	> 10 µM	> 10 µM	> 10 µM	> 10 µM	> 10 µM	> 10 µM	> 10 µM	> 10 µM	> 10 µM	> 10 µM	> 10 µM	> 10 µM
O=C(c1ccc(OCCN2CCCCC2)cc1)c1c(-c2ccc(O)cc2)sc2cc(O)ccc12 [Raloxifene]	> 10 µM	> 10 µM	> 10 µM	> 10 µM	> 10 µM	> 10 µM	> 10 µM	> 10 µM	> 10 µM	> 10 µM	> 10 µM	> 10 µM	> 10 µM	> 10 µM	> 10 µM
NC(=O)c1ncn([C@@H]2O[C@H](CO)[C@@H](O)[C@H]2O)n1 [Ribavirin]	> 10 µM	> 10 µM	> 10 µM	> 10 µM	> 10 µM	> 10 µM	> 10 µM	> 10 µM	> 10 µM	> 10 µM	> 10 µM	> 10 µM	> 10 µM	> 10 µM	> 10 µM
Nc1ncnc2c1ncn2[C@@H]1O[C@H](CSCC[C@H](N)C(=O)O)[C@@H](O)[C@H]1O [S-Adenosyl Homocysteine]	> 10 µM	> 10 µM	> 10 µM	> 10 µM	> 10 µM	> 10 µM	> 10 µM	> 10 µM	> 10 µM	> 10 µM	> 10 µM	> 10 µM	> 10 µM	> 10 µM	> 10 µM
CCCc1nn(C)c2c(O)nc(-c3cc(S(=O)(=O)N4CCN(C)CC4)ccc3OCC)nc12 [Sildenafil]	> 10 µM	> 10 µM	> 10 µM	> 10 µM	> 10 µM	> 10 µM	> 10 µM	> 10 µM	> 10 µM	> 10 µM	> 10 µM	> 10 µM	> 10 µM	> 10 µM	> 10 µM
Cc1coc2c1C(=O)C(=O)c1c-2ccc2c(C)cccc12 [Tanshinone I]	> 10 µM	> 10 µM	> 10 µM	> 10 µM	> 10 µM	> 10 µM	> 10 µM	> 10 µM	> 10 µM	> 10 µM	> 10 µM	> 10 µM	> 10 µM	> 10 µM	> 10 µM
CCOC(=O)N1c2ccc(C(F)(F)F)cc2[C@@H](N(Cc2cc(C(F)(F)F)cc(C(F)(F)F)c2)C(=O)OC)C[C@H]1CC [Torcetrapib]	0.652 µM	> 10 µM	> 10 µM	> 10 µM	> 10 µM	9.96 µM	> 10 µM	> 10 µM	7.83 µM	> 10 µM	7.03 µM	> 10 µM	> 10 µM	> 10 µM	> 10 µM
Oc1cc(Cl)ccc1Oc1ccc(Cl)cc1Cl [Triclosan]	> 10 µM	> 10 µM	> 10 µM	> 10 µM	> 10 µM	> 10 µM	> 10 µM	> 10 µM	> 10 µM	> 10 µM	> 10 µM	> 10 µM	> 10 µM	> 10 µM	> 10 µM
COc1cc2c(NC3CCN(C)CC3)nc(N3CCCN(C)CC3)nc2cc1OCCCN(C)C [UNC0224]	> 10 µM	> 10 µM	> 10 µM	> 10 µM	> 10 µM	> 10 µM	> 10 µM	> 10 µM	> 10 µM	> 10 µM	> 10 µM	> 10 µM	> 10 µM	> 10 µM	> 10 µM
CC(C)C[C@H](NC(=O)[C@@H](O)[C@H](N)Cc1ccccc1)C(=O)O [Ubenimex]	> 10 µM	> 10 µM	> 10 µM	> 10 µM	> 10 µM	> 10 µM	> 10 µM	> 10 µM	> 10 µM	> 10 µM	> 10 µM	> 10 µM	> 10 µM	> 10 µM	> 10 µM
O=P(O)(O)C(O)(Cn1ccnc1)P(=O)(O)O [Zoledronic acid]	> 10 µM	> 10 µM	> 10 µM	> 10 µM	> 10 µM	> 10 µM	> 10 µM	> 10 µM	> 10 µM	> 10 µM	> 10 µM	> 10 µM	> 10 µM	> 10 µM	> 10 µM
